Measured values published in ChEMBL document CHEMBL4376868, “Structure-Activity Relationship Study of Novel 6-Aryl-2-benzoyl-pyridines as Tubulin Polymerization Inhibitors with Potent Antiproliferative Properties” (J Med Chem, 2020).
The source made the active and inactive calls. The calls are words filed in the database; no cut-off is given here.

Experiments:
[1] = system: RPMI-7951; test: Antiproliferative activity against human RPMI7951 cells measured after 72 hrs by MTS assay; format: functional, cell-based; conditions: RPMI-7951, 72 h
[2] = system: SK-BR-3; test: Antiproliferative activity against human SK-BR-3 cells measured after 72 hrs by MTS assay; format: functional, cell-based; conditions: SK-BR-3, 72 h
[3] = system: MDA-MB-453; test: Antiproliferative activity against human MDA-MB-453 cells measured after 72 hrs by MTS assay; format: functional, cell-based; conditions: MDA-MB-453, 72 h
[4] = system: MDA-MB-231; test: Antiproliferative activity against human MDA-MB-231 cells measured after 72 hrs by MTS assay; format: functional, cell-based; conditions: MDA-MB-231, 72 h
[5] = system: A-375; test: Antiproliferative activity against human A375 cells measured after 72 hrs by MTS assay; format: functional, cell-based; conditions: A-375, 72 h
[6] = system: M14; test: Antiproliferative activity against human M14 cells measured after 72 hrs by MTS assay; format: functional, cell-based; conditions: M14, 72 h
[7] = molecular target: Tubulin (Sus scrofa) (UniProt P02554+P02550); test: Inhibition of porcine brain tubulin polymerization at 10 uM measured at 30 secs interval for 65 mins by spectrophotometric method
Chain of Tubulin (Sus scrofa) (P02550 whole entry, looked up): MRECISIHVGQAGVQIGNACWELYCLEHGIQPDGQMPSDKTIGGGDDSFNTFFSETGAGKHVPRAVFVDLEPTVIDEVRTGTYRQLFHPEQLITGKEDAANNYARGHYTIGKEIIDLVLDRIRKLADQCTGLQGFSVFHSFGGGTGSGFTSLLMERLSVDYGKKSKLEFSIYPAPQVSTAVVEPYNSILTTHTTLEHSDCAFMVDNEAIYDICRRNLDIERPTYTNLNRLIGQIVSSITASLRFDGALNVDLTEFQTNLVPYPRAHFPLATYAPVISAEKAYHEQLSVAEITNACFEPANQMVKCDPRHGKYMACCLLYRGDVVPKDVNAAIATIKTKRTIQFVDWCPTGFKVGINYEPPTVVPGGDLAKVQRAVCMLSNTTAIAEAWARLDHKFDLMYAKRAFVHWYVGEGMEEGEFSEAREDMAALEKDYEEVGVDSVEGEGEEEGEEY
Chain of Tubulin (Sus scrofa) (P02554 whole entry, looked up): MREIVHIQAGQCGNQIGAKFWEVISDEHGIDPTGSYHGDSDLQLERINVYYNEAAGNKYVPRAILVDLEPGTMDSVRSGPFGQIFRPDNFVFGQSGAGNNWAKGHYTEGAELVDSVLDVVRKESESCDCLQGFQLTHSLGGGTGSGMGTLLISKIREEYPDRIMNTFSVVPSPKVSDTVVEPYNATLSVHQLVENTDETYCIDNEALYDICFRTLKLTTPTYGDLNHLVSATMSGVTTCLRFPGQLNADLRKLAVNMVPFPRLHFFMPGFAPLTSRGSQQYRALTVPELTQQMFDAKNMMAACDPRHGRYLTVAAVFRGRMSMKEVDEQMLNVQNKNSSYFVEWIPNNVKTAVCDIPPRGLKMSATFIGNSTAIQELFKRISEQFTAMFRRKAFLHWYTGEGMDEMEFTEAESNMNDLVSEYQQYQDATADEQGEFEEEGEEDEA

| SMILES | IC50 [2] [nM] | IC50 [3] [nM] | IC50 [4] [nM] | IC50 [5] [nM] | inhibition [7] | IC50 [1] [nM] | IC50 [6] [nM] |
| --- | --- | --- | --- | --- | --- | --- | --- |
| COc1cc(C(=O)c2cccc(-c3ccncc3)n2)cc(OC)c1OC | > 1000 | > 1000 | > 1000 | > 1000 | – | > 1000 | > 1000 |
| COc1cc(C(=O)/C=C/c2cccc(-c3ccc(C)c(O)c3)n2)cc(OC)c1OC | > 1000 | > 1000 | > 1000 | > 1000 | – | > 1000 | > 1000 |
| COc1cc(C(=O)c2cccc(-c3cncc4ccccc34)n2)cc(OC)c1OC | > 1000 | > 1000 | > 1000 | > 1000 | – | > 1000 | > 1000 |
| COc1cc(C(=O)c2cccc(-c3cncnc3)n2)cc(OC)c1OC | > 1000 | > 1000 | > 1000 | > 1000 | – | > 1000 | > 1000 |
| COc1cc(C(=O)c2cccc(-c3cccnc3)n2)cc(OC)c1OC | 109 | 102 | 66.5 | 60.1 | – | 51.9 | 55.3 |
| COc1cc(C(=O)c2cccc(-c3cc(OC)c(OC)c(OC)c3)n2)cc(OC)c1OC | > 1000 | > 1000 | > 1000 | > 1000 | – | > 1000 | > 1000 |
| COc1cc(C(=O)c2cccc(-c3cccc(C)c3)n2)cc(OC)c1OC | 61 | 63.6 | 82.4 | 62.9 | – | 60.7 | 46.1 |
| COc1cc(C(=O)c2cnc(-c3c[nH]c4ccccc34)[nH]2)cc(OC)c1OC [SABIZABULIN] | 13.3 | 13.6 | 8.2 | 10.4 | – | 8.8 | 8.9 |
| COc1cc(C(=O)c2cc(O)cc(-c3ccc(C)cc3)n2)cc(OC)c1OC | > 1000 | > 1000 | > 1000 | > 1000 | – | > 1000 | > 1000 |
| COc1cc(C(=O)c2c[nH]c(-c3ccc(C)cc3)n2)cc(OC)c1OC | 12.5 | 11.4 | 25.3 | 18.7 | Active | 6.4 | 6.9 |
| CCc1ccc(-c2cccc(C(=O)c3cc(OC)c(OC)c(OC)c3)n2)cc1 | 22.4 | 16.5 | 21 | 19.5 | – | 18.3 | 17.5 |
| COc1cc(C(=O)c2cccc(-c3ccnc4ccccc34)n2)cc(OC)c1OC | > 1000 | > 1000 | > 1000 | > 1000 | – | > 1000 | > 1000 |
| COc1cccc(-c2cccc(C(=O)c3cc(OC)c(OC)c(OC)c3)n2)c1 | 42.4 | 24.5 | 41.4 | 41.3 | – | 42.3 | 34.7 |
| COc1ccc(-c2cccc(C(=O)c3cc(OC)c(OC)c(OC)c3)n2)cc1 | 19.9 | 18.1 | 50.7 | 27.8 | – | 32.1 | 27.4 |
| COc1cc(C(=O)c2ccccn2)cc(OC)c1OC | > 1000 | > 1000 | > 1000 | > 1000 | – | > 1000 | > 1000 |
| COc1cc(C(=O)c2cccc(-c3ccc4[nH]c5ccccc5c4c3)n2)cc(OC)c1OC | 321 | 301 | 424 | 277 | – | 202 | 293 |
| COc1cc(C(=O)c2cncc(-c3ccc(C)c(O)c3)c2)cc(OC)c1OC | 62.7 | 64.8 | 66.3 | 60.6 | – | 63.6 | 57.1 |
| COc1cc(C(=O)c2cc(-c3ccc(C)cc3)ccn2)cc(OC)c1OC | 12 | 7.1 | 35.2 | 15.6 | – | 19.8 | 16.3 |
| COc1cc(C(=O)c2cccc(-c3ccc(C(N)=O)cc3)n2)cc(OC)c1OC | 66.5 | 76.3 | 39.2 | 87.4 | – | 36.3 | 47.9 |
| COc1cc(C(=O)c2cccc(-c3ccc(C(C)=O)cc3)n2)cc(OC)c1OC | 18.8 | 19.1 | 104 | 24 | – | 40.5 | 22.5 |
| COc1cc(C(=O)c2cccc(-c3ccc(C#N)cc3)n2)cc(OC)c1OC | 12.3 | 10.6 | 28.1 | 12.3 | – | 11.9 | 12.8 |
| COc1cc(C(=O)c2cccc(-c3cccc([N+](=O)[O-])c3)n2)cc(OC)c1OC | 736 | 881 | 328 | 311 | – | 54.7 | 87.9 |
| COc1cc(C(=O)c2cccc(-c3ccc(C(F)(F)F)cc3)n2)cc(OC)c1OC | 7 | 7.9 | 23.6 | 19.8 | – | 19.6 | 21.4 |
| COc1cc(C(=O)c2cccc(-c3ccc(C)c(C)c3)n2)cc(OC)c1OC | 8.8 | 15.8 | 20 | 9 | – | 8.4 | 8.1 |
| COc1cc(C(=O)c2cccc(-c3cccc(N)c3)n2)cc(OC)c1OC | 38.9 | 25.2 | 34.7 | 41.8 | – | 20.1 | 25.9 |
| COc1cc(C(=O)c2cccc(-c3ccc(O)cc3)n2)cc(OC)c1OC | 386 | 28.5 | 27.7 | 42.4 | – | 22.2 | 28.9 |

Continued, in another order:

| IC50 [2] [nM] | IC50 [3] [nM] | IC50 [4] [nM] | IC50 [5] [nM] | inhibition [7] | SMILES | IC50 [1] [nM] | IC50 [6] [nM] |
| --- | --- | --- | --- | --- | --- | --- | --- |
| 13.4 | 13.5 | 20 | 24.2 | – | COc1cc(C(=O)c2cccc(-c3ccc(C)c(Cl)c3)n2)cc(OC)c1OC | 22.6 | 16.6 |
| 5 | 6.9 | 9 | 11.4 | – | COc1cc(C(=O)c2cccc(-c3ccc([N+](=O)[O-])cc3)n2)cc(OC)c1OC | 12.9 | 10.9 |
| 186 | 155 | 159 | 207 | – | C=C(c1cc(OC)c(OC)c(OC)c1)c1cccc(-c2ccc(C)cc2)n1 | 154 | 167 |
| 20 | 15.6 | 35.9 | 27.4 | – | COc1cc(C(=O)c2cccc(-c3ccc(C)c(O)c3)c2)cc(OC)c1OC | 15.7 | 16.2 |
| 36.6 | 21.4 | 20.7 | 25 | – | COc1cc(C(=O)c2cccc(-c3ccc(F)cc3)n2)cc(OC)c1OC | 23.2 | 15.4 |
| 14.9 | 14.9 | 17.7 | 7 | – | COc1cc(C(=O)c2cccc(-c3ccc4[nH]ccc4c3)n2)cc(OC)c1OC | 7.4 | 6.7 |
| 67.3 | 38.5 | 35.5 | 34.1 | – | COc1cc(C(=O)c2cccc(-c3ccsc3)n2)cc(OC)c1OC | 27.9 | 28.3 |
| 19 | 16 | 17.9 | 9.3 | – | COc1cc(C(=O)c2cccc(-c3cccc4[nH]ccc34)n2)cc(OC)c1OC | 6.5 | 12.2 |
| 51.2 | 33.9 | 41 | 46.6 | – | COc1cc(C(=O)c2cccc(-c3cc[nH]c3)n2)cc(OC)c1OC | 45.2 | 45.1 |
| 19.7 | 8.5 | 23.8 | 19.2 | – | COc1cc(C(=O)c2cccc(-c3c[nH]c4ccccc34)n2)cc(OC)c1OC | 19.5 | 17.8 |
| 15 | 17.8 | 17.2 | 18.1 | – | COc1cc(C(=O)c2cc(C)cc(-c3ccc(C)c(O)c3)n2)cc(OC)c1OC | 17.1 | 22.3 |
| 4.4 | 6.5 | 6.5 | 5.9 | – | COc1cc(C(=O)c2cccc(-c3ccc(C)c(F)c3)n2)cc(OC)c1OC | 5.6 | 6.7 |
| 101 | 29.1 | 41.4 | 35.8 | – | COc1cc(C(=O)c2cccc(-c3cccc(O)c3)n2)cc(OC)c1OC | 29.9 | 31.4 |
| 68 | 58.3 | 91.9 | 52.5 | – | COc1cc(C(=O)c2cccc(-c3ccccc3C)n2)cc(OC)c1OC | 54.2 | 27.4 |
| 1.6 | 2.9 | 2.8 | 3 | – | COc1cc(C(=O)c2cccc(-c3ccc(C)c(N)c3)n2)cc(OC)c1OC | 2 | 3 |
| > 1000 | > 1000 | > 1000 | > 1000 | – | COc1cc(C(=O)c2cccc(-c3c(C)cc(C)cc3C)n2)cc(OC)c1OC | > 1000 | > 1000 |
| 86.4 | 47.2 | 220 | 67 | – | COc1cc(C(=O)c2cc(F)cc(-c3ccc(C)c(O)c3)c2)cc(OC)c1OC | 25.2 | 30 |
| 16.2 | 13.4 | 27.1 | 13.2 | – | COc1cc(C(=O)c2cccc(-c3ccc(N)cc3)n2)cc(OC)c1OC | 9.4 | 12.1 |
